{
  "source": "the supplement of paper PMC10307832",
  "assay_in_all_cases": "relative viability (nuclei count vs DMSO), 5 days (fraction); higher = more cells survive",
  "key": {"HCC-44": {"system": "HCC-44", "method_in_brief": "(§1)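 Lung cancer cell lines were pin-tool dosed in 1536-well plates on the day after seeding, with either a lone drug or a fixed anchor-drug dose plus five library-drug doses (not always all listed) in √10 steps. Nuclei were counted on 4× images after 5 days. Relative viability is the ratio of treated-well to vehicle-well nuclei counts, with each value a median of duplicate plates.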"}, "NCI-H1648": {"system": "NCI-H1648", "method_in_brief": "as §1"}, "NCI-H1395": {"system": "NCI-H1395", "method_in_brief": "as §1"}, "IA-LM": {"system": "IA-LM", "method_in_brief": "as §1"}, "EKVX": {"system": "EKVX", "method_in_brief": "as §1"}, "NCI-H1755": {"system": "NCI-H1755", "method_in_brief": "as §1"}, "LCLC-103H": {"system": "LCLC-103H", "method_in_brief": "as §1"}, "UMC-11": {"system": "UMC-11", "method_in_brief": "as §1"}, "HCC-15": {"system": "HCC-15", "method_in_brief": "as §1"}},
  "data": [
    {"smiles": "Cc1sc2c(c1C)C(c1ccc(Cl)cc1)=N[C@@H](CC(=O)OC(C)(C)C)c1nnc(C)n1-2", "note": "[JQ1] + O=C(CCCCCCC(=O)Nc1ccccc1)NO [Vorinostat] (partner 1 µM)", "values": [
      {"measurement": "relative viability", "setting": "HCC-44; first compound 0.04 µM", "value": 1.12},
      {"measurement": "relative viability", "setting": "HCC-44; first compound 0.1265 µM", "value": 1.03},
      {"measurement": "relative viability", "setting": "HCC-44; first compound 0.4 µM", "value": 0.965},
      {"measurement": "relative viability", "setting": "HCC-44; first compound 1.265 µM", "value": 0.788},
      {"measurement": "relative viability", "setting": "HCC-44; first compound 4 µM", "value": 0.578},
      {"measurement": "relative viability", "setting": "NCI-H1648; first compound 0.04 µM", "value": 0.392},
      {"measurement": "relative viability", "setting": "NCI-H1648; first compound 0.1265 µM", "value": 0.41},
      {"measurement": "relative viability", "setting": "NCI-H1648; first compound 0.4 µM", "value": 0.264},
      {"measurement": "relative viability", "setting": "NCI-H1648; first compound 1.265 µM", "value": 0.234},
      {"measurement": "relative viability", "setting": "NCI-H1648; first compound 4 µM", "value": 0.198},
      {"measurement": "relative viability", "setting": "NCI-H1395; first compound 0.04 µM", "value": 0.662},
      {"measurement": "relative viability", "setting": "NCI-H1395; first compound 0.1265 µM", "value": 0.619},
      {"measurement": "relative viability", "setting": "NCI-H1395; first compound 0.4 µM", "value": 0.694},
      {"measurement": "relative viability", "setting": "NCI-H1395; first compound 1.265 µM", "value": 0.479},
      {"measurement": "relative viability", "setting": "NCI-H1395; first compound 4 µM", "value": 0.473},
      {"measurement": "relative viability", "setting": "IA-LM; first compound 0.04 µM", "value": 0.925},
      {"measurement": "relative viability", "setting": "IA-LM; first compound 0.1265 µM", "value": 0.888},
      {"measurement": "relative viability", "setting": "IA-LM; first compound 0.4 µM", "value": 0.197},
      {"measurement": "relative viability", "setting": "IA-LM; first compound 1.265 µM", "value": 0.0917},
      {"measurement": "relative viability", "setting": "IA-LM; first compound 4 µM", "value": 0.0701},
      {"measurement": "relative viability", "setting": "EKVX; first compound 0.04 µM", "value": 0.789},
      {"measurement": "relative viability", "setting": "EKVX; first compound 0.4 µM", "value": 0.739},
      {"measurement": "relative viability", "setting": "EKVX; first compound 1.265 µM", "value": 0.466},
      {"measurement": "relative viability", "setting": "EKVX; first compound 4 µM", "value": 0.496},
      {"measurement": "relative viability", "setting": "NCI-H1755; first compound 0.04 µM", "value": 0.822},
      {"measurement": "relative viability", "setting": "NCI-H1755; first compound 0.1265 µM", "value": 0.579},
      {"measurement": "relative viability", "setting": "NCI-H1755; first compound 0.4 µM", "value": 0.693},
      {"measurement": "relative viability", "setting": "NCI-H1755; first compound 1.265 µM", "value": 0.651},
      {"measurement": "relative viability", "setting": "NCI-H1755; first compound 4 µM", "value": 0.552},
      {"measurement": "relative viability", "setting": "LCLC-103H; first compound 0.04 µM", "value": 0.832},
      {"measurement": "relative viability", "setting": "LCLC-103H; first compound 0.1265 µM", "value": 0.536},
      {"measurement": "relative viability", "setting": "LCLC-103H; first compound 0.4 µM", "value": 0.581},
      {"measurement": "relative viability", "setting": "LCLC-103H; first compound 1.265 µM", "value": 0.455},
      {"measurement": "relative viability", "setting": "LCLC-103H; first compound 4 µM", "value": 0.375},
      {"measurement": "relative viability", "setting": "UMC-11; first compound 0.04 µM", "value": 0.326},
      {"measurement": "relative viability", "setting": "UMC-11; first compound 0.1265 µM", "value": 0.317},
      {"measurement": "relative viability", "setting": "UMC-11; first compound 0.4 µM", "value": 0.223},
      {"measurement": "relative viability", "setting": "UMC-11; first compound 1.265 µM", "value": 0.141},
      {"measurement": "relative viability", "setting": "UMC-11; first compound 4 µM", "value": 0.165},
      {"measurement": "relative viability", "setting": "HCC-15; first compound 0.04 µM", "value": 0.804},
      {"measurement": "relative viability", "setting": "HCC-15; first compound 0.1265 µM", "value": 0.705},
      {"measurement": "relative viability", "setting": "HCC-15; first compound 0.4 µM", "value": 0.7},
      {"measurement": "relative viability", "setting": "HCC-15; first compound 1.265 µM", "value": 0.424},
      {"measurement": "relative viability", "setting": "HCC-15; first compound 4 µM", "value": 0.271}
    ]}
  ]
}
